Laboratory results taken from patent US20180256673A1, “METHODS FOR TREATING FUNGAL INFECTIONS” (priority 2015, published 2018).
Converted amounts (≈) assume the structure as drawn. Where two headings read alike, the source gives them in different places.

Key:
Experiment in all cases: Susceptibility testing of VVC clinical isolates at pH 7 and 4 (CLSI M27-A3)
[1] = test system: C. parapsilosis vaginal isolates; assay type: cell-based, Candida parapsilosis; details: 14 isolates, read-out: MIC90
[2] = test system: C. albicans vaginal isolates; assay type: cell-based, Candida albicans; details: for MIC / MIC90: Candida albicans; for MIC: read-out: MIC; for MIC90: 60 isolates, read-out: MIC90
[3] = test system: C. tropicalis vaginal isolates; assay type: cell-based; details: Candida tropicalis, 13 isolates, read-out: MIC90
[4] = test system: C. glabrata vaginal isolates; assay type: cell-based, Candida glabrata; details: for Number of isolates at MIC 0.03 μg/mL / Number of isolates at MIC 0.06 μg/mL / Number of isolates at MIC 0.25 μg/mL / Number of isolates at MIC 0.5 μg/mL / Number of isolates at MIC 1 μg/mL / Number of isolates at MIC 2 μg/mL / Number of isolates at MIC 0.125 μg/mL / Number of isolates at MIC 4 μg/mL / Number of isolates at MIC ≥4 μg/mL: 21 VVC isolates; for MIC90: Nakaseomyces glabratus, 21 isolates, read-out: MIC90

## CCC(C)n1ncn(-c2ccc(N3CCN(c4ccc(OCC5COC(Cn6cncn6)(c6ccc(Cl)cc6Cl)O5)cc4)CC3)cc2)c1=O (centres unmarked) [ITR, itraconazole]
[1]; pH 4, 24 h
  MIC90: 0.016 µg/mL (≈ 0.0227 µM)
[1]; pH 4, 48 h
  MIC90: 0.125 µg/mL (≈ 0.177 µM)
[1]; pH 7, 24 h
  MIC90: 0.03 µg/mL (≈ 0.0425 µM)
[1]; pH 7, 48 h
  MIC90: 0.125 µg/mL (≈ 0.177 µM)
[2]; 60 VVC isolates, 24 h, pH 4
  Number of isolates at MIC 0.008 μg/mL: 8
  Number of isolates at MIC 0.03 μg/mL: 13
  Number of isolates at MIC 0.06 μg/mL: 8
  Number of isolates at MIC 0.125 μg/mL: 2
  Number of isolates at MIC 0.25 μg/mL: 2
  Number of isolates at MIC 0.5 μg/mL: 2
  Number of isolates at MIC 2 μg/mL: 1
  Number of isolates at MIC […]: 24
[2]; 60 VVC isolates, 24 h, pH 7
  Number of isolates at MIC 0.008 μg/mL: 21
  Number of isolates at MIC 0.03 μg/mL: 9
  Number of isolates at MIC 0.06 μg/mL: 3
  Number of isolates at MIC 0.25 μg/mL: 2
  Number of isolates at MIC 0.5 μg/mL: 2
  Number of isolates at MIC 2 μg/mL: 1
  Number of isolates at MIC […]: 20
[2]; 60 VVC isolates, 48 h, pH 4
  Number of isolates at MIC 0.03 μg/mL: 23
  Number of isolates at MIC 0.06 μg/mL: 10
  Number of isolates at MIC 0.125 μg/mL: 6
  Number of isolates at MIC 0.25 μg/mL: 3
  Number of isolates at MIC 0.5 μg/mL: 3
  Number of isolates at MIC 1 μg/mL: 1
  Number of isolates at MIC […]: 10
  Number of isolates at MIC ≥4 μg/mL: 4
[2]; 60 VVC isolates, 48 h, pH 7
  Number of isolates at MIC 0.008 μg/mL: 6
  Number of isolates at MIC 0.03 μg/mL: 8
  Number of isolates at MIC 0.125 μg/mL: 6
  Number of isolates at MIC 0.25 μg/mL: 2
  Number of isolates at MIC 0.5 μg/mL: 2
  Number of isolates at MIC 2 μg/mL: 1
  Number of isolates at MIC […]: 34
  Number of isolates at MIC ≥4 μg/mL: 1
[2]; 48 h, pH 4, fluconazole-resistant isolate 1, pH 4, 48 h
  MIC: 0.125 µg/mL (≈ 0.177 µM)
[2]; 48 h, pH 4, fluconazole-resistant isolate 2, pH 4, 48 h
  MIC: 0.25 µg/mL (≈ 0.354 µM)
[2]; 48 h, pH 4, fluconazole-resistant isolate 3, pH 4, 48 h
  MIC: 0.5 µg/mL (≈ 0.709 µM)
[2]; 48 h, pH 4, fluconazole-resistant isolate 4, pH 4, 48 h
  MIC: 0.125 µg/mL (≈ 0.177 µM)
[2]; 48 h, pH 4, fluconazole-resistant isolate 5, pH 4, 48 h
  MIC: > 4 µg/mL
[2]; 48 h, pH 4, fluconazole-resistant isolate 6, pH 4, 48 h
  MIC: > 4 µg/mL
[2]; 48 h, pH 4, fluconazole-resistant isolate 7, pH 4, 48 h
  MIC: 0.5 µg/mL (≈ 0.709 µM)
[2]; 48 h, pH 4, fluconazole-resistant isolate 8, pH 4, 48 h
  MIC: > 4 µg/mL
[2]; 48 h, pH 4, fluconazole-resistant isolate 9, pH 4, 48 h
  MIC: > 4 µg/mL
[2]; 48 h, pH 4, fluconazole-resistant isolate 10, pH 4, 48 h
  MIC: 0.25 µg/mL (≈ 0.354 µM)
[2]; 48 h, pH 7, fluconazole-resistant isolate 1, pH 7, 48 h
  MIC: 0.125 µg/mL (≈ 0.177 µM)
[2]; 48 h, pH 7, fluconazole-resistant isolate 2, pH 7, 48 h
  MIC: 0.25 µg/mL (≈ 0.354 µM)
[2]; 48 h, pH 7, fluconazole-resistant isolate 3, pH 7, 48 h
  MIC: 0.5 µg/mL (≈ 0.709 µM)
[2]; 48 h, pH 7, fluconazole-resistant isolate 4, pH 7, 48 h
  MIC: 0.03 µg/mL (≈ 0.0425 µM)
[2]; 48 h, pH 7, fluconazole-resistant isolate 5, pH 7, 48 h
  MIC: 0.25 µg/mL (≈ 0.354 µM)
[2]; 48 h, pH 7, fluconazole-resistant isolate 6, pH 7, 48 h
  MIC: 0.016 µg/mL (≈ 0.0227 µM)
[2]; 48 h, pH 7, fluconazole-resistant isolate 7, pH 7, 48 h
  MIC: 0.5 µg/mL (≈ 0.709 µM)
[2]; 48 h, pH 7, fluconazole-resistant isolate 8, pH 7, 48 h
  MIC: 2 µg/mL (≈ 2.83 µM)
[2]; 48 h, pH 7, fluconazole-resistant isolate 9, pH 7, 48 h
  MIC: > 4 µg/mL
[2]; 48 h, pH 7, fluconazole-resistant isolate 10, pH 7, 48 h
  MIC: 0.125 µg/mL (≈ 0.177 µM)
[2]; pH 4, 24 h
  MIC90: 0.125 µg/mL (≈ 0.177 µM)
[2]; pH 4, 48 h
  MIC90: 5 µg/mL (≈ 7.09 µM)
[2]; pH 7, 24 h
  MIC90: 0.06 µg/mL (≈ 0.085 µM)
[2]; pH 7, 48 h
  MIC90: 0.125 µg/mL (≈ 0.177 µM)
[3]; pH 4, 24 h
  MIC90: 0.125 µg/mL (≈ 0.177 µM)
[3]; pH 4, 48 h
  MIC90: 0.5 µg/mL (≈ 0.709 µM)
[3]; pH 7, 24 h
  MIC90: 0.125 µg/mL (≈ 0.177 µM)
[3]; pH 7, 48 h
  MIC90: 0.5 µg/mL (≈ 0.709 µM)
[4]; 24 h, pH 4
  Number of isolates at MIC 0.03 μg/mL: 1
  Number of isolates at MIC 0.06 μg/mL: 2
  Number of isolates at MIC 0.25 μg/mL: 2
  Number of isolates at MIC 0.5 μg/mL: 9
  Number of isolates at MIC 1 μg/mL: 6
  Number of isolates at MIC 2 μg/mL: 1
[4]; 24 h, pH 7
  Number of isolates at MIC 0.03 μg/mL: 4
  Number of isolates at MIC 0.06 μg/mL: 2
  Number of isolates at MIC 0.125 μg/mL: 6
  Number of isolates at MIC 0.25 μg/mL: 3
  Number of isolates at MIC 0.5 μg/mL: 3
  Number of isolates at MIC 1 μg/mL: 2
  Number of isolates at MIC 4 μg/mL: 1
[4]; 48 h, pH 4
  Number of isolates at MIC 0.03 μg/mL: 1
  Number of isolates at MIC 0.06 μg/mL: 1
  Number of isolates at MIC 0.125 μg/mL: 1
  Number of isolates at MIC 0.5 μg/mL: 2
  Number of isolates at MIC 1 μg/mL: 4
  Number of isolates at MIC 2 μg/mL: 2
  Number of isolates at MIC 4 μg/mL: 2
  Number of isolates at MIC ≥4 μg/mL: 8
[4]; 48 h, pH 7
  Number of isolates at MIC 0.03 μg/mL: 1
  Number of isolates at MIC 0.06 μg/mL: 1
  Number of isolates at MIC 0.125 μg/mL: 1
  Number of isolates at MIC 0.25 μg/mL: 5
  Number of isolates at MIC 0.5 μg/mL: 8
  Number of isolates at MIC 2 μg/mL: 2
  Number of isolates at MIC ≥4 μg/mL: 3
[4]; pH 4, 24 h
  MIC90: 1 µg/mL (≈ 1.42 µM)
[4]; pH 4, 48 h
  MIC90: > 4 µg/mL
[4]; pH 7, 24 h
  MIC90: 1 µg/mL (≈ 1.42 µM)
[4]; pH 7, 48 h
  MIC90: > 4 µg/mL
